From US6403645B2, “Antidepressant effect of norepinephrine uptake 2 inhibitors and combined medications including them” (President and Fellows of Harvard College, priority 2000, dated 2002)

Experiment: Urinary levels of norepinephrine and normetanephrine in depressed patients treated with desipramine
Format: in vivo
Excerpt: (Plasma levels of normetanephrine were not measured in these studies.)

[1] = by the fourth week of treatment

With `CNCCCN1c2ccccc2CCc2ccccc21` [desipramine] the “urinary levels of norepinephrine” value (after one week of treatment) was “small decreases”, the “urinary levels of normetanephrine” value (after one week of treatment) was “small decreases” and the “urinary levels of norepinephrine” value [1] was “statistically significant increases”. The “urinary levels of normetanephrine” value [1] was “statistically significant increases”.
